Source: patent publication US20200054649A1, “SKELETAL MUSCLE HYPERTROPHY INDUCERS” (CYTOO, priority 2016, published 2020)
Read-outs that look alike come from different tables or passages of the source.

Columns and labels:
[1] = test system: Human primary myoblasts (HSMM) from healthy Donor 3, myotubes; assay: MyoScreen hypertrophy assay on human primary myoblasts/myotubes, healthy Donor 3; format: cell-based; conditions: for EC50 / activity at 10 µM: Homo sapiens
Procedure: (§1) Healthy donor primary skeletal cells (Donor 1 and Donor 3) were Clonetics™ Human Skeletal Muscle Myoblasts (HSMM).
(§2) Hypertrophy and Atrophy Rescue assays were performed using an in vitro fully automated human myotube model called MyoScreen (Cytoo, France). This model relies on a tight control of the microenvironment that guides the differentiation of human primary myoblasts. Myotubes formed on MyoScreen™ micropatterns present a high level of maturation together with a highly standardized morphology.
(§3) Human primary myoblasts from donors 1, 3 and Z were seeded in MyoScreen™ micropatterned 96-well plates (Cytoo, France), let them adhere for 24 h in growth medium, then run the differentiation in a low horse serum medium for at least 5 days.
(§4) At Day0, MyoScreen™ plates (Cytoo, France) containing micropatterns were pre-filled with 200 μl/well of growth medium and stored in the incubator at 37° C. Human primary myoblasts were detached from the flasks, count, and seeded into the plates with 15 000 cells per well in 100 μl of growth medium.
(§5) At Day 1, the growth medium was changed for a differentiation medium, 300 μl/well (DMEM with 0.1% horse serum) in which myoblasts started differentiating and forming myotubes.
(§6) At Day 2, the differentiation medium was changed. Then candidate compounds were diluted with differentiation medium and transferred into the plate. The final concentration of DMSO should be not higher than 0.1%. At least 6 wells were treated with the vehicle as a basal control, and 6 wells were treated with IGF-1 at 100 ng/ml as positive hypertrophy control.
(§7) At Day 6, cells were fixed with formalin 5% for 30 min at room temperature, then permeabilized with Triton X-100 at 0.1% in PBS for 15 min, and blocked with PBS+BSA 1% for 20 minutes. Myotubes were incubated with first antibody against Troponin T in blocking buffer for 1 h30, washed three times with PBS, incubated with secondary antibody and Hoescht (1/10 000) for 1 h30, and washed three times with PBS.
(§8) Images were acquired at 10× magnification with an Operetta High Content Imaging System. Image processing and analysis were performed with dedicated algorithms developed on the Acapella High Content Imaging Software (Perkin Elmer) by CYTOO. Eleven fields per well were acquired.
(§9) First, segmentation of myotubes and nuclei were done using respectively the Troponin T staining intensity and the Hoechst staining. One to two myotubes per micropattern were usually identified (a myotube is a troponin T staining area that includes at least 2 nuclei). The threshold of segmentation was set-up in order to avoid detecting the background noise and eliminate aberrant small myotube structures. At the end of this first step, specific readouts were calculated in the whole well, like the nuclei count and the fusion index (percentage of nuclei included in troponin T staining). Usually around 50 to 60 myotubes were detected per well in a control condition.
(§10) Then, an image clean-up step was performed on the Troponin T images in order to remove myotubes that touch the border of the image. The final valid myotubes were used to extract myotube morphology parameters including the myotube width and area, and the number of nuclei per myotube.
(§11) Nuclei Count, Fusion Index, Mean myotube Area and Number of nuclei per myotube have been validated as relevant and sensitive readouts of myotube differentiation as well as atrophic and hypertrophic induction.
A primary screening was run to identify hypertrophy compounds that increase the myotube differentiation and size. Candidate compounds were tested at 10 μM in monoplicate on Donor 3 cells.
A retest was run, by cherry picking (same compound batch as primary screening): each hit was tested in the same conditions as in the Primary Screening (Donor 3, 10 μM) in six well replicates.
Dose response assays were performed on three donors (Healthy Donors 3 and 1, DMD Donor Z): 8 doses of candidate compounds between 33 μM and 0.015 μM, 2 well replicates per dose. […]

[2] = test system: Human primary myoblasts (HSMM) from healthy Donor 1, myotubes; assay: MyoScreen hypertrophy assay, dose response, healthy Donor 1; format: cell-based; conditions: first dose response assay; for EC50: Homo sapiens, not defined precisely
Procedure: as §1, §2, §3, §4, §5, §6, §7, §8, §9, §10, §11
(§12) Dose response assays were performed on three donors (Healthy Donors 3 and 1, DMD Donor Z): 8 doses of candidate compounds between 33 μM and 0.015 μM, 2 well replicates per dose.
(§13) Compounds of interest were tested several times in dose response, with triplicate of wells per dose. Results were normalized to the control condition (basal level), and plotted using GraphPadm Prism. The readout “nuclei count” allowed detecting any toxicity effect. The readouts “fusion index” and “myosin area” were used to determine the EC50 value using the GrapgPad Prism fitting solution. […]

[3] = test system: Human primary myoblasts from DMD (Duchenne muscular dystrophy) Donor Z, myotubes; assay: MyoScreen hypertrophy assay, dose response, DMD Donor Z; format: cell-based; conditions: for DMD myotube size and differentiation / EC50 / % Activity: Donor Z (DMD); for DMD myotube size and differentiation: dose response; for EC50: Homo sapiens, not defined precisely; for EC50 / % Activity: first dose response assay; for activity: additional dose response assay, Donor Z, Mifepristone at 300 nM, IGF-1 positive control
Procedure: In addition, cells from a DMD (Duchenne muscular dystrophy) donor were sourced (Donor Z) and used to confirm primary hits.
as §2, §3, §4, §5, §6, §7, §8, §9, §10, §11, §12, §13

[4] = test system: Myotubes from the healthy donor 3 atrophied with IL-1β, TNF-α or Myostatin; assay: MyoScreen atrophy rescue assay (IL-1β, TNF-α, myostatin as atrophy inducers); format: cell-based, human; set-up: key: +++: total rescue; ++: partial rescue; +: low rescue; conditions: nestorone 1 μM, corticosterone 3 μM, mifepristone 1 μM; for atrophy rescue, TNF-alpha: atrophy inducer TNF-α 2 ng/mL; for atrophy rescue, Myostatin: atrophy inducer myostatin 150 ng/mL
Procedure: as §2, §3, §4, §5, §6
For Atrophy Rescue assay, one hour after candidate compound addition, atrophy inducers were added at the following final concentration: 150 ng/mL of myostatin, 25 ng/mL of […] and 2 ng/mL of TNF-α.
as §7, §8, §9, §10, §11
Atrophy Rescue assays were performed in the presence of atrophy inducers, i.e. TNF-α, IL-1β and Myostatin. Each compound was tested in triplicate of wells at 1 μM for nestorone, 3 μM for corticostestrone and 1 μM for mifepristone.
Myotubes from the healthy donor 3 were atrophied using different inducers: inflammation cytokines IL-1β and TNF-α and SMAD pathway activator Myostatin. The ability of each compound to block the atrophy induced by these different atrophy inducers was determined.

[5] = test system: Myotubes from the healthy donor 3 atrophied with IL-1β, TNF-α or Myostatin; assay: as above; format: cell-based, human; set-up: key: +++: total rescue; ++: partial rescue; +: low rescue; conditions: atrophy inducer IL-1β 25 ng/mL, nestorone 1 μM, corticosterone 3 μM, mifepristone 1 μM
[6] = first dose response assay, Donor 3, not defined precisely
[7] = second dose response assay, Donor 3, lower concentrations
[8] = Donor 3, compounds at 10 μM, monoplicate, % Activity = myotube fusion index (compound)*100/fusion index (basal control), IGF-1 at 100 ng/ml, read-out: Primary screening (% Activity)
[9] = Donor 3, compounds at 10 μM, six well replicates, % of basal control fusion index, IGF-1 at 100 ng/ml, read-out: Retest (% Activity)
[10] = first dose response assay, Donor 3, 33 μM to 0.015 μM

| Compound | EC50 [1, 6] [nM] | EC50 [1, 7] [nM] | activity at 10 µM [1, 8] [%] | activity at 10 µM [1, 9] [%] | % Activity [1, 10] [%] | % Activity [1, 7] [%] | EC50 [2] [nM] | % Activity [2] [%] | DMD myotube size and differentiation [3] | EC50 [3] [nM] | % Activity [3] [%] | atrophy rescue, TNF-alpha [4] | atrophy rescue, Myostatin [4] | atrophy rescue, IL-1 [5] | Primary screening (% Activity) ([1]; Donor 3, compounds at 10 μM, monoplicate, % Activity = myotube fusion index (compound)*100/fusion index (basal control), IGF-1 at 100 ng/ml) [%] | Retest (% Activity) ([1]; Donor 3, compounds at 10 μM, six well replicates, % of basal control fusion index, IGF-1 at 100 ng/ml) [%] | activity [3] [%] |
| --- | --- | --- | --- | --- | --- | --- | --- | --- | --- | --- | --- | --- | --- | --- | --- | --- | --- |
| C[C@]12C[C@H](O)[C@H]3[C@@H](CCC4=CC(=O)CC[C@@]43C)[C@@H]1CC[C@@H]2C(=O)CO [Corticosterone] | ~100 | 200 | 148 | 128 | 114 | 120 | ~1000 | 134 | significant increase | ~500 | 145 | ++ | +++ | ++ |  |  |  |
| CC(=O)[C@H]1CC[C@H]2[C@@H]3CCC4=CC(=O)CC[C@]4(C)[C@H]3CC[C@]12C [Progesterone] |  |  | 137 | 114 |  |  |  |  |  |  |  |  |  |  |  |  |  |
| IGF-1: IGF-1 at 100 ng/ml as positive hypertrophy control |  |  |  |  | 150 | 150 |  | 150 |  |  | 250 | +++ | +++ | +++ | 210 | 190 | 200 |
| C=C1C[C@H]2[C@@H]3CCC4=CC(=O)CC[C@@H]4[C@H]3CC[C@]2(C)[C@@]1(OC(C)=O)C(C)=O [Nestorone] | ~100 | 200 | 153 | 189 | 115 | 133 | ~100 | 130 | significant increase | ~100 | 181 | + | ++ | ++ |  |  |  |
| CC(=O)O[C@]1(C(C)=O)CC[C@H]2[C@@H]3C=C(C)C4=CC(=O)CC[C@]4(C)[C@H]3CC[C@@]21C [Megestrol acetate] |  |  | 133 | 125 |  |  |  |  |  |  |  |  |  |  |  |  |  |
| C=C1C[C@H]2[C@@H]3C=C(C)C4=CC(=O)CC[C@]4(C)[C@H]3CC[C@]2(C)[C@@]1(OC(C)=O)C(C)=O [Melengestrol acetate] |  |  | 140 | 140 |  |  |  |  |  |  |  |  |  |  |  |  |  |
| CC#C[C@]1(O)CC[C@H]2[C@@H]3CCC4=CC(=O)CCC4=C3[C@@H](c3ccc(N(C)C)cc3)C[C@@]21C [Mifepristone] | ~50 | 100 | 140 | 173 | 133 | 135 | ~5 | 145 |  |  |  | ++ | +++ | +++ |  |  | 156 |
